Laboratory results from ChEMBL document CHEMBL5338799, “Synthesis and evaluation of phenylimidazole FabK inhibitors as new Anti-C. Difficile agents” (Bioorg Med Chem, 2023).
≈ marks a conversion by molar mass, not a printed value.

Experiments:
[1] = Inhibition of Clostridioides difficile FabK expressed in Escherichia coli BL21 (DE3) using crotonyl-CoA as substrate incubated for 10 mins in presence of NADH by microplate reader assay
[2] = Inhibition of Streptococcus pneumoniae FabK expressed in Escherichia coli BL21 (DE3) using crotonyl-CoA as substrate incubated for 10 mins in presence of NADH by microplate reader assay
[3] = Solubility of compound by turbidimetric assay; format: physicochemical
Clostridioides difficile = assay: Antibacterial activity against Clostridioides difficile R20291 assessed as inhibition of bacterial growth incubated for 24 hrs by broth microdilution method; format: functional
HCT-116 = assay: cells; format: functional, cell-based; conditions: Homo sapiens, HCT-116, 48 h
Description: Cytotoxicity against human HCT-116 cells assessed as reduction in cell viability incubated for 48 hrs by resazurin dye based assay

## COC(=O)c1ccc2nc(NC(=O)CSc3nc4ccccc4[nH]3)sc2c1
[1]
  IC50: 4200 nM
[2]
  IC50: 1800 nM

## O=C(NCc1nc(-c2ccc(Br)cc2)c[nH]1)Nc1nc2ccc(Br)cc2s1
[1]
  IC50: 340 nM
[3]
  solubility kinetic: 31.3 µM (≈ 15.9 µg/mL)
Clostridioides difficile
  MIC: 50 µg/mL (≈ 98.6 µM)

## O=C(NCc1nc2ccccc2[nH]1)Nc1ncc(Sc2ccccn2)s1
[1]
  IC50: > 10000 nM
Clostridioides difficile
  MIC: > 50 µg/mL

## O=C(NCc1nc(-c2ccc(Br)cc2)c[nH]1)Nc1nc2ccc(F)cc2s1
[1]
  IC50: 230 nM
[3]
  solubility kinetic: 61.3 µM (≈ 27.4 µg/mL)

## O=C(NCc1nc(-c2ccc(Br)cc2)c[nH]1)Nc1nc2ccccc2s1
[1]
  IC50: 1880 nM
[3]
  solubility kinetic: 64.8 µM (≈ 27.8 µg/mL)
Clostridioides difficile
  MIC: > 50 µg/mL

## O=C(NCc1nc2ccccc2c(=O)[nH]1)Nc1ncc(Sc2ccccn2)s1
[1]
  IC50: > 10000 nM
Clostridioides difficile
  MIC: > 50 µg/mL

## O=C(NCc1ncc(-c2ccc(Br)cc2)[nH]1)Nc1ncc(Sc2ccccn2)s1
[1]
  IC50: 1230 nM
HCT-116
  IC50: > 100 µg/mL
[3]
  solubility kinetic: 80.1 µM (≈ 39 µg/mL)
Clostridioides difficile
  MIC: 1.56 µg/mL (≈ 3.2 µM)

## O=C(NCc1nc(-c2ccccc2)c[nH]1)Nc1ncc(Sc2ccccc2)s1
[2]
  IC50: 37 nM

## O=C(NCc1ncc(-c2ccccc2)[nH]1)Nc1ncc(Sc2ccccn2)s1
[1]
  IC50: > 10000 nM
Clostridioides difficile
  MIC: > 50 µg/mL

## O=C(NCc1nc(-c2ccc(Br)cc2)c[nH]1)Nc1ncc(Sc2ccc(Br)cc2)s1
[1]
  IC50: 530 nM
[3]
  solubility kinetic: 63.6 µM (≈ 36 µg/mL)
Clostridioides difficile
  MIC: 25 µg/mL (≈ 44.2 µM)

## O=C(NCc1nc(-c2ccc(Br)cc2)c[nH]1)Nc1nc2c(C(F)(F)F)cccc2s1
[1]
  IC50: > 10000 nM
HCT-116
  IC50: > 100 µg/mL
Clostridioides difficile
  MIC: 1.56 µg/mL (≈ 3.14 µM)

## O=C(NCc1nc(-c2ccc(Br)cc2)c[nH]1)Nc1nc2ccc(Cl)cc2s1
[1]
  IC50: 110 nM
HCT-116
  IC50: > 100 µg/mL
[3]
  solubility kinetic: 76.9 µM (≈ 35.6 µg/mL)
Clostridioides difficile
  MIC: 6.25 µg/mL (≈ 13.5 µM)

## O=C(NCc1nc(-c2ccc(Br)cc2)c[nH]1)Nc1nc2cccc(C(F)(F)F)c2s1
[1]
  IC50: 2810 nM

## O=C(NCc1nc(-c2ccc(Br)cc2)c[nH]1)Nc1ncc(Sc2ncccc2C(F)(F)F)s1
[1]
  IC50: 240 nM
HCT-116
  IC50: > 100 µg/mL
[3]
  solubility kinetic: 52 µM (≈ 28.9 µg/mL)
Clostridioides difficile
  MIC: 1.56 µg/mL (≈ 2.81 µM)

## O=C(NCc1nc(-c2ccc(Br)cc2)c[nH]1)Nc1ncc(Sc2nc3ccccc3s2)s1
[1]
  IC50: 420 nM
[3]
  solubility kinetic: 50 µM (≈ 27.2 µg/mL)
Clostridioides difficile
  MIC: > 50 µg/mL

## O=C(NCc1nc(-c2ccc(Br)cc2)c[nH]1)Nc1nc2c(F)cc(F)cc2s1
[1]
  IC50: 4530 nM
[3]
  solubility kinetic: 125 µM (≈ 58 µg/mL)
Clostridioides difficile
  MIC: 12.5 µg/mL (≈ 26.9 µM)

## O=C(NCc1nc(-c2ccc(Br)cc2)c[nH]1)Nc1nc2ccc(OC(F)(F)F)cc2s1
[1]
  IC50: 90 nM
Clostridioides difficile
  MIC: 12.5 µg/mL (≈ 24.4 µM)

## O=C(NCc1nc(-c2ccc(Br)cc2)c[nH]1)Nc1ncc(Sc2ccccc2)s1
[1]
  IC50: 900 nM
Clostridioides difficile
  MIC: 1.56 µg/mL (≈ 3.21 µM)

## CCOc1ccc2nc(NC(=O)NCc3nc(-c4ccc(Br)cc4)c[nH]3)sc2c1
[1]
  IC50: 170 nM
[3]
  solubility kinetic: 79 µM (≈ 37.3 µg/mL)
Clostridioides difficile
  MIC: 12.5 µg/mL (≈ 26.5 µM)

## O=C(NCc1nc(-c2ccc(Br)cc2)c[nH]1)Nc1ncc(Sc2ccc(C(F)(F)F)cn2)s1
[1]
  IC50: 770 nM
HCT-116
  IC50: > 100 µg/mL
[3]
  solubility kinetic: 18.3 µM (≈ 10.2 µg/mL)
Clostridioides difficile
  MIC: 3.12 µg/mL (≈ 5.62 µM)

## O=C(NCc1nc(-c2ccc(Br)cc2)c[nH]1)Nc1nc2cc(C(F)(F)F)ccc2s1
[1]
  IC50: > 10000 nM
Clostridioides difficile
  MIC: 3.12 µg/mL (≈ 6.29 µM)

## CS(=O)(=O)c1ccc2nc(NC(=O)NCc3nc(-c4ccc(Br)cc4)c[nH]3)sc2c1
[1]
  IC50: 450 nM
[3]
  solubility kinetic: 44.5 µM (≈ 22.5 µg/mL)
Clostridioides difficile
  MIC: > 100 µg/mL

## O=C(NCc1nc(-c2ccc(Br)cc2)c[nH]1)Nc1ncc(Sc2ncccn2)s1
[1]
  IC50: 1020 nM
HCT-116
  IC50: > 100 µg/mL
[3]
  solubility kinetic: 83.9 µM (≈ 41 µg/mL)
Clostridioides difficile
  MIC: 1.56 µg/mL (≈ 3.19 µM)

## O=C(NCc1nc(-c2ccc(Br)cc2)c[nH]1)Nc1ncc(Sc2ccc3ccccc3n2)s1
[1]
  IC50: 750 nM
[3]
  solubility kinetic: 74.7 µM (≈ 40.1 µg/mL)
Clostridioides difficile
  MIC: > 50 µg/mL

## O=C(NCc1nc(-c2ccc(Br)cc2)c[nH]1)Nc1ncc(Sc2ccc(Cl)cn2)s1
[1]
  IC50: 850 nM
[3]
  solubility kinetic: 59 µM (≈ 30.8 µg/mL)
Clostridioides difficile
  MIC: 3.12 µg/mL (≈ 5.98 µM)
